Consider 18 molecules from PMC12042115 (mLife, 2025).

In one experiment the test system is M. tuberculosis H37Rv. The experiment is described as follows: MIC against Mtb H37Rv. Format: cell-based, Mycobacterium tuberculosis. Particulars: for MIC90: Mycobacterium tuberculosis, H37RV.
For another experiment, the system named is GH189 (clpP1‐KD). In words: microbe, parasite or virus in culture. Particulars: for MIC: Mycobacterium tuberculosis variant bovis BCG. Format: cell-based, M. bovis BCG.
For a further experiment, the target named is Mtb ClpP1P2 (Mycobacterium tuberculosis, UniProt P9WPC3+P9WPC5). In words: Mtb ClpP1P2 peptidase assay (library screening and IC50 determination). The format is biochemical.
Chain of Mtb ClpP1P2 (P9WPC3 16-214, one chain of several): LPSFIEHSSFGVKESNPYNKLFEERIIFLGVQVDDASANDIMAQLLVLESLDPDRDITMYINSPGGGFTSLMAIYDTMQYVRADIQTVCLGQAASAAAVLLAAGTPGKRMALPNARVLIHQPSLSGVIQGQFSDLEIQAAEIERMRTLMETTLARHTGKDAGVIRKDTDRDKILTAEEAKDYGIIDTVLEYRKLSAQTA
The mark [1] stands for this setting: Figure 2B, neat/synthesized compounds, read-out: ClpP1P2 IC50.
The mark [2] stands for this setting: read-out: MIC (µg/ml) when clpP1‐KD induced.
Setting [3] is: read-out: MIC (µg/ml) when no clpP1‐KD.
Where [4] appears, read: Figure S4, highest concentration 100 µM, read-out: concentration inhibiting 50% of the peptidase activity.

≈ marks a conversion by molar mass, not a printed value. Like-named read-outs stand apart in the source and are kept apart here.

With `O=C(Nc1ccc(Cl)cc1)c1ccc(N2CCOCC2)c([N+](=O)[O-])c1` [GDI‐5757], in the experiment with M. tuberculosis H37Rv, the “inhibition of Mtb whole cell at 100 µM” value was “Neither analog could inhibit”; the MIC90 (usually an inhibitory concentration at the 90% level, which refers to growth in some studies and to a panel of isolates in others) was more than 100 µM. Also, in the experiment with GH189 (clpP1‐KD), the “MIC shift against GH189 on ATc induction” value was “remained inactive”. Moreover, the “inhibition of ClpP1P2 peptidase at 100 µM” value at Mtb ClpP1P2 is “Neither analog could inhibit”. Moreover, the IC50 on Mtb ClpP1P2 (setting [1]) is more than 100 µM.

As to `O=C(Oc1ccc(Cl)cc1)c1ccc(COC(=O)c2cnccn2)cc1` [SAM002946897], the IC50 at Mtb ClpP1P2 (library stocks, concentration–response, read-out: IC50) is 3.23 µM.

For the molecule `N[C@@H]1CON=C1O` [D‐Cycloserine], the MIC in the experiment on GH189 (clpP1‐KD) (setting [2]) came to 9.3 µg/mL (≈ 91.1 µM); in the experiment on GH189 (clpP1‐KD) (setting [3]) it was 11 µg/mL (≈ 108 µM).

On to `CCc1cc(C(N)=S)ccn1` [Ethionamide], for which the “downshift in the MIC against GH189 on clpP1‐KD” value (“downshift in the MIC” below) with GH189 (clpP1‐KD) was more than 2 fold. The MIC in the experiment on GH189 (clpP1‐KD) (setting [2]) is 6.4 µg/mL (≈ 38.5 µM); in the experiment with GH189 (clpP1‐KD) (setting [3]) it was 46 µg/mL (≈ 277 µM). Moreover, the IC50 on Mtb ClpP1P2 (setting [4]) was more than 100 µM.

With `CC[C@@H](CO)NCCN[C@@H](CC)CO` [Ethambutol], the “downshift in the MIC” value in the experiment with GH189 (clpP1‐KD) is more than 2 fold. For the same molecule, the MIC in the experiment with GH189 (clpP1‐KD) (setting [2]) was 0.28 µg/mL (≈ 1.37 µM); in the experiment on GH189 (clpP1‐KD) (setting [3]), 0.62 µg/mL (≈ 3.03 µM).

On to `C[C@@H](O)[C@H]1C(=O)N2C(C(=O)O)=C(S[C@@H]3CN[C@H](C(=O)N(C)C)C3)[C@H](C)[C@H]12` [Meropenem], for which, in the experiment on GH189 (clpP1‐KD), the “downshift in the MIC” value was more than 2 fold. Further, the MIC with GH189 (clpP1‐KD) (setting [2]) is 1.6 µg/mL (≈ 4.17 µM); in the experiment on GH189 (clpP1‐KD) (setting [3]), 5.3 µg/mL (≈ 13.8 µM). In addition, at Mtb ClpP1P2 (setting [4]), the IC50 was more than 100 µM.

In the case of `CO[C@H]1/C=C/O[C@@]2(C)Oc3c(C)c(O)c4c(O)c(c(/C=N/N5CCN(C)CC5)c(O)c4c3C2=O)NC(=O)/C(C)=C\C=C\[C@H](C)[C@H](O)[C@@H](C)[C@@H](O)[C@@H](C)[C@H](OC(C)=O)[C@@H]1C` [Rifampicin], the MIC in the experiment with GH189 (clpP1‐KD) (setting [2]) and with GH189 (clpP1‐KD) (setting [3]) was 0.01 µg/mL (≈ 0.0122 µM) in each case.

Take `[H]/N=C(/N)N[C@H]1[C@H](O)[C@@H](O)[C@H](O[C@@H]2O[C@@H](C)[C@](O)(C=O)[C@H]2O[C@@H]2O[C@@H](CO)[C@H](O)[C@@H](O)[C@@H]2NC)[C@@H](N/C(N)=N\[H])[C@@H]1O` [Streptomycin]: the MIC in the experiment with GH189 (clpP1‐KD) (setting [2]) was 0.23 µg/mL (≈ 0.395 µM); in the experiment with GH189 (clpP1‐KD) (setting [3]), 0.24 µg/mL (≈ 0.413 µM).

Consider `NC(=O)c1cnccn1` [Pyrazinamide, reference compound], for which, on Mtb ClpP1P2 (setting [4]), the IC50 was more than 100 µM.

For `O=[N+]([O-])c1cn2c(n1)OC[C@@H](OCc1ccc(OC(F)(F)F)cc1)C2` [Pretomanid], the results for the MIC in the experiment on GH189 (clpP1‐KD) (setting [2]) and with GH189 (clpP1‐KD) (setting [3]) were 0.06 µg/mL (≈ 0.167 µM) and 0.12 µg/mL (≈ 0.334 µM), respectively.

In the case of `CO[C@H]1/C=C/O[C@@]2(C)Oc3c(C)c(O)c4c(O)c(cc(O)c4c3C2=O)NC(=O)/C(C)=C\C=C\[C@H](C)[C@H](O)[C@@H](C)[C@@H](O)[C@@H](C)[C@H](OC(C)=O)[C@@H]1C` [Rifamycin, reference compound], at Mtb ClpP1P2 (setting [4]), the IC50 was more than 100 µM.

Turning to `O=C(Oc1ccccc1)c1ccc(N2CCOCC2)c([N+](=O)[O-])c1` [GDI‐5756], in the experiment with M. tuberculosis H37Rv, the “inhibition of Mtb whole cell at 100 µM” value is given as “Neither analog could inhibit” and the MIC90 is more than 100 µM. In addition, in the experiment with GH189 (clpP1‐KD), the “MIC shift against GH189 on ATc induction” value is “marginally shifted down”. Also, on Mtb ClpP1P2, the “inhibition of ClpP1P2 peptidase at 100 µM” value is given as “Neither analog could inhibit”. Moreover, the IC50 at Mtb ClpP1P2 (setting [1]) was more than 100 µM.

For the molecule Capreomycin, in the experiment on GH189 (clpP1‐KD), the “MIC (µg/ml) when clpP1‐KD induced” value was found to be 0.14 µg/mL and the “MIC (µg/ml) when no clpP1‐KD” value stood at 0.25 µg/mL.

For the molecule `NNC(=O)c1ccncc1` [Isoniazid], the MIC with GH189 (clpP1‐KD) (setting [2]) stood at 0.057 µg/mL (≈ 0.416 µM); in the experiment on GH189 (clpP1‐KD) (setting [3]) it was 0.066 µg/mL (≈ 0.481 µM). Also, the IC50 on Mtb ClpP1P2 (setting [4]) was more than 100 µM.

For the molecule `COc1nc2ccc(Br)cc2cc1[C@@H](c1ccccc1)[C@@](O)(CCN(C)C)c1cccc2ccccc12` [Bedaquiline], the MIC with GH189 (clpP1‐KD) (setting [2]) and in the experiment with GH189 (clpP1‐KD) (setting [3]) was 0.06 µg/mL (≈ 0.108 µM) throughout.

For the molecule `CC(=O)NC[C@H]1CN(c2ccc(N3CCOCC3)c(F)c2)C(=O)O1` [Linezolid], the MIC is 0.97 µg/mL (≈ 2.88 µM) with GH189 (clpP1‐KD) (setting [2]) and 1 µg/mL (≈ 2.96 µM) in the experiment with GH189 (clpP1‐KD) (setting [3]).

Turning to `CC[C@H]1OC(=O)[C@H](C)[C@@H](O[C@H]2C[C@@](C)(OC)[C@@H](O)[C@H](C)O2)[C@H](C)[C@@H](O[C@@H]2O[C@H](C)C[C@H](N(C)C)[C@H]2O)[C@](C)(O)C[C@@H](C)CN(C)[C@H](C)[C@@H](O)[C@]1(C)O` [Azithromycin], the MIC was 0.46 µg/mL (≈ 0.614 µM) in the experiment with GH189 (clpP1‐KD) (setting [2]) and 0.5 µg/mL (≈ 0.668 µM) in the experiment on GH189 (clpP1‐KD) (setting [3]).

With `CC[C@H]1OC(=O)[C@H](C)[C@@H](O[C@H]2C[C@@](C)(OC)[C@@H](O)[C@H](C)O2)[C@H](C)[C@@H](O[C@@H]2O[C@H](C)C[C@H](N(C)C)[C@H]2O)[C@](C)(OC)C[C@@H](C)C(=O)[C@H](C)[C@@H](O)[C@]1(C)O` [Clarithromycin], the MIC is 0.1 µg/mL (≈ 0.134 µM) with GH189 (clpP1‐KD) (setting [2]) and 0.11 µg/mL (≈ 0.147 µM) with GH189 (clpP1‐KD) (setting [3]).
